Laboratory results reported in the RepoRT retention time repository (doi:10.1021/acs.analchem.2c02893).

assay: RP, Thermo Scientific Acclaim RSLC 120 C18, 100 × 2.1 mm, 2.2 µm, 30 °C, 0.2 mL/min, estimated dead time 1.1 min; A: 90% water + 10% methanol + 0.01% formic acid + 5 mM ammonium formate, pH 3.61; B: methanol + 0.01% formic acid + 5 mM ammonium formate, pH 3.61; gradient (min/%B) 0/1 1/1 2/39 13/99.9 15/99.9 15.1/1 20.1/1; settings: stereoisomer not certain

Row | SMILES | LC retention time
1 | NCC(O)c1ccccc1 (stereo not drawn) [Apophedrin  (Phenylethanolamine)] | 2.84 min
2 | C=C(C)C(N)=O [Methacrylamide] | 2.81 min
3 | C=C(C)C1Cc2c(ccc3c2OC2COc4cc(OC)c(OC)cc4C2C3=O)O1 (stereo not drawn) [Rotenone] | 10.5 min
4 | CN1C2CC(OC(=O)C(CO)c3ccccc3)CC1C1OC12 (stereo not drawn) [Scopolamine] | 3.83 min
5 | COC(=O)C1C(OC(=O)c2ccccc2)CC2CCC1N2C (stereo not drawn) [Cocaine] | 4.84 min
6 | c1ccc(C2(N3CCCCC3)CCCCC2)cc1 [Phencyclidine] | 5.74 min
7 | O=C1NCCN1Cc1ccc(Cl)nc1 [Imidacloprid-urea] | 4.71 min
8 | COc1cc(CCN)c(OC)cc1Br [2C-B] | 5.56 min
9 | COC(=O)c1c(Cl)ccc(Cl)c1OC [Dicamba-methyl] | 9.64 min
10 | O=C1OCC(O)=C1Cc1ccccc1 [Benzyltetronic acid (2-)] | 5.06 min
11 | CC(O)(C(N)=O)c1ccccc1 (stereo not drawn) [M-144] | 12.9 min
12 | O=c1[nH]cnc2[nH]ncc12 [Allopurinol] | 2.19 min
13 | CC(C)(N)Cc1ccccc1 [Phentermine] | 4.64 min
14 | CN(C)CCCn1c2c(c3ccccc31)CCCCCC2 [Iprindol] | 9.26 min
15 | C[N+](C)(C)CCCl [Chlormequat] | 1.67 min
16 | CC(C)(C)c1ccc(C(O)CCCN2CCC(C(O)(c3ccccc3)c3ccccc3)CC2)cc1 (stereo not drawn) [Terfenadine] | 9.69 min
17 | CCc1ccc(CCOc2ccc(CC3SC(=O)NC3=O)cc2)nc1 (stereo not drawn) [Pioglitazone] | 9.09 min
18 | CCC(Cc1ccc2c(c1)OCO2)NC (stereo not drawn) [MBDB] | 4.66 min
19 | CNCCC(Oc1ccccc1C)c1ccccc1 (stereo not drawn) [Atomoxetine] | 7.63 min
20 | O=C(O)CCCn1cc(C(=O)c2cccc3ccccc23)c2ccccc21 [JWH-073-M-N-Butanoic acid] | 9.33 min
21 | Clc1ccc(C(Cn2ccnc2)OCc2c(Cl)cccc2Cl)c(Cl)c1 (stereo not drawn) [Isoconazole] | 12.3 min
22 | CC(C)(C)NCC(O)COc1cccc2c1SCCC2 (stereo not drawn) [Tertatolol] | 6.76 min

Row | SMILES | LC retention time
23 | O=C(Oc1cccc2cccnc12)c1cn(Cc2ccc(F)cc2)c2ccccc12 [FUB-PB-22] | 11.1 min
24 | OC(c1cc(C(F)(F)F)nc2c(C(F)(F)F)cccc12)C1CCCCN1 (stereo not drawn) [Mefloquine] | 8.59 min
25 | CC(C)C(NC(=O)c1nn(Cc2ccc(F)cc2)c2ccccc12)C(N)=O (stereo not drawn) [AB-FUBINACA] | 9.59 min
26 | CCCCCCn1cc(C(=O)c2cccc3ccccc23)c2ccccc21 [JWH-019] | 12.9 min
27 | CCS(=O)(=O)CCSP(=O)(OC)OC [Demeton-S-methylsulfone] | 4.15 min
28 | O=c1ccc2cc(OC3OC(CO)C(O)C(O)C3O)c(O)cc2o1 (stereo not drawn) [Esculin] | 3.69 min
29 | CNC(=O)CSP(=O)(OC)OC [Omethoate] | 3.35 min
30 | O=C(O)C(c1ccccc1Cl)N1CCc2sccc2C1 (stereo not drawn) [Clopidogrel Carbon acid] | 5.56 min
31 | NC(=NN=Cc1ccc(Cl)cc1)NN=Cc1ccc(Cl)cc1 [Robenidine] | 10.4 min
32 | COc1cc(OC)nc(NC(=O)NS(=O)(=O)c2c(Cl)nc3ccccn23)n1 [Imazosulfuron] | 8.78 min
33 | CC(C)(C)NCC(O)c1ccc(O)c(CO)c1 (stereo not drawn) [Albuterol / Salbutamol] | 3.23 min
34 | COP(=S)(OC)Oc1ccc(S(C)=O)c(C)c1 (stereo not drawn) [Fenthion-sulfoxide] | 7.28 min
35 | CCC(CC)COC(C(=O)OCCN(C)C)(c1ccccc1)c1ccccc1 [Denaverine] | 11.6 min
36 | CCC(C)(NC(=O)c1cc(Cl)c(C)c(Cl)c1)C(=O)CCl (stereo not drawn) [Zoxamide] | 11.1 min
37 | NC(=O)N1c2ccccc2C(O)C(O)c2ccccc21 (stereo not drawn) [Carbamazepine-10.11-dihydro-10.11 dihydroxy] | 5.79 min
38 | CC(C)N(C(=O)CS(=O)(=O)O)c1ccccc1 [Propachlor-ESA] | 5.46 min
39 | COc1cc(C)c(C(=O)c2c(OC)ccc(Br)c2C)c(OC)c1OC [Metrafenone] | 11.4 min
40 | COc1cc(CCNCc2ccccc2OC)c(OC)cc1I [25I-NBoMe] | 8.03 min
41 | COc1cccc(C2(O)CCCCC2CN)c1 (stereo not drawn) [Tramadol-N-bisdesmethyl (dinor-tramadol)] | 5.19 min
42 | CN(C)CCCN1c2ccccc2CCc2ccc(Cl)cc21 [Clomipramine] | 9.21 min
43 | COCCCNc1nc(NC(C)C)nc(SC)n1 [Methoprotryne] | 9.14 min
44 | CC12Cc3cn[nH]c3CC1CCC1C2CCC2(C)C1CCC2(C)O (stereo not drawn) [Stanozolol] | 11.3 min

Row | SMILES | LC retention time
45 | Cc1ncc(CSSCc2cnc(C)c(O)c2CO)c(CO)c1O [Pyritinol] | 5.54 min
46 | CCC1C(=O)OCC1Cc1cncn1C (stereo not drawn) [Pilocarpine] | 2.74 min
47 | Cc1cccc(CN2CCN(C(c3ccccc3)c3ccc(Cl)cc3)CC2)c1 (stereo not drawn) [Meclozine] | 11.3 min
48 | CCCCC(CC)COC(=O)c1ccccc1C(=O)OCC(CC)CCCC (stereo not drawn) [Phthalate-bis-(2-ethylhexyl). DEHP] | 15 min
49 | CC(=O)Nc1cc(NS(=O)(=O)C(F)(F)F)c(C)cc1C [Mefluidide] | 6.85 min
50 | Cc1nnc2n1-c1ccc([N+](=O)[O-])cc1C(c1ccccc1)=NC2 [Nitrazolam] | 6.91 min
51 | Cc1cc(C)cc(OCC2CNC(=O)O2)c1 (stereo not drawn) [Metaxalone] | 7.86 min
52 | CNC(=O)ON=CC(C)(C)SC [Aldicarb] | 6.17 min
53 | CCOC(=O)C(CCc1ccccc1)NC(C)C(=O)N1CCCC1C(=O)O (stereo not drawn) [Enalapril] | 6.83 min
54 | CCc1ccc(C(=O)c2cn(CCCCCF)c3ccccc23)c2ccccc12 [EAM-2201] | 12.2 min
55 | CCC(C(=O)O)C1OC(C(C)C(O)C(C)C(=O)C(CC)C2OC3(C=CC(O)C4(CCC(C)(C5CCC(O)(CC)C(C)O5)O4)O3)C(C)CC2C)C(C)CC1C (stereo not drawn) [Narasin] | 16.1 min
56 | NC1CCc2cc3c(cc2C1)OCO3 (stereo not drawn) [MDAT] | 4.32 min
57 | CN(C)P(=O)(OP(=O)(N(C)C)N(C)C)N(C)C [Schradan] | 5.36 min
58 | Nc1c(Br)cc(Br)cc1CNC1CCC(O)CC1 (stereo not drawn) [Ambroxol] | 6.04 min
59 | CNC(C)C(=O)c1ccc(F)cc1 (stereo not drawn) [Methcathinone (4-F-/ 4-FMC. Flephedrone)] | 3.91 min
60 | COC(=O)C(C)N(C(=O)c1ccco1)c1c(C)cccc1C (stereo not drawn) [Furalaxyl] | 8.99 min
61 | CC(=O)N(C)N(C(=O)C(=O)N(C)C)c1ccccc1 [AMDOPH] | 5.06 min
62 | CC12CC(O)C3C(CCC4=CC(=O)CCC43C)C1CCC2=O (stereo not drawn) [4-Androsten-11beta-ol-3,17-dione] | 8.23 min
63 | CC(C)NCC(O)c1ccc(NS(C)(=O)=O)cc1 (stereo not drawn) [Sotalol] | 2.96 min
64 | CCCCCCCCCCCCNC [N-Methyldodecylamine] | 10.5 min
65 | COc1cc(CCNCc2ccccc2OC)c(OC)cc1Cl [2-C-C-NBoMe] | 7.34 min
66 | CC1NCCOC1c1ccccc1 (stereo not drawn) [Phenmetrazine] | 4.14 min

Row | SMILES | LC retention time
67 | CCOC(=O)C(CCc1ccccc1)NC1CCCN2CCCC(C(=O)O)N2C1=O (stereo not drawn) [Cilazapril] | 7.94 min
68 | NC(Cc1ccc(N(CCCl)CCCl)cc1)C(=O)O (stereo not drawn) [Melphalan] | 7.01 min
69 | Nc1ccc(S(=O)(=O)NC(=O)c2ccccc2)cc1 [Sulfabenzamide] | 4.72 min
70 | CC(C)(C)c1ccc(CSc2cnn(C(C)(C)C)c(=O)c2Cl)cc1 [Pyridaben] | 13.4 min
71 | CCCCCn1nc(C(=O)Nc2cccc3ccccc23)c2ccccc21 [MN-18] | 13 min
72 | CCCCC1(COC(=O)CCC(=O)O)C(=O)N(c2ccccc2)N(c2ccccc2)C1=O [Suxibuzone] | 9.61 min
73 | CC1(C)SC2C(NC(=O)C(N)c3ccccc3)C(=O)N2C1C(=O)O (stereo not drawn) [Ampicillin] | 4.21 min
74 | CC(C)C(=O)C1(C(=O)Nc2ccccc2)OC1(C(=O)c1ccc(F)cc1)c1ccccc1 (stereo not drawn) [Atorvastatin IMP D (epoxide)] | 10.3 min
75 | COc1ccc(C2Sc3ccccc3N(CCN(C)C)C(=O)C2O)cc1 (stereo not drawn) [Diltiazem-Deacetyl] | 6.41 min
76 | CC(C)(C)C(NC(=O)c1nn(CC2CCCCC2)c2ccccc12)C(N)=O (stereo not drawn) [MAB-CHMINACA] | 11.8 min
77 | O=C(c1cccc2ccccc12)c1cn(CCCCCO)c2ccccc12 [JWH-018-M-N-5-OH-Pentyl] | 10 min
78 | CN(C(=O)CN(CCO)CC(=O)N(C)C(C)(C)Cc1ccccc1)C(C)(C)Cc1ccccc1 [Oxetacaine] | 10.9 min
79 | Cc1nnc2n1-c1ccc(Br)cc1C(c1ccccn1)=NC2 [Pyrazolam] | 6.27 min
80 | CCCCCCCCCCCCOCCOCCOCCOCCO [Tetraethylene glycol monododecyl ether] | 13.5 min
81 | CCCCCc1cc(O)c2c(c1)OC(C)(C)c1ccc(C)cc1-2 [Cannabinol] | 13.7 min
82 | Cc1cc2n[nH]nc2cc1C [Benzotriazole-5 6-di-Me] | 6.76 min
83 | CC(Cc1ccc2c(c1)OCO2)N(C)C (stereo not drawn) [MDDMA] | 4.08 min
84 | CSc1nnc(C(C)(C)C)c(=O)[nH]1 [Metribuzin-Desamino (DA)] | 7.46 min
85 | NCCC(Oc1ccc(C(F)(F)F)cc1)c1ccccc1 (stereo not drawn) [Fluoxetine-nor] | 8.58 min
86 | CN(C)CCOCC(=O)NC12CC3CC(CC(C3)C1)C2 [Tromantadine] | 6.64 min
87 | NC(=O)c1ccccc1O [Salicylamide] | 4.76 min
88 | Nc1c(Cl)c(Cl)nc(C(=O)O)c1Cl [Picloram] | 3.56 min
